Values quoted from earlier work in patent publication US20110251275A1, “OMEGA-3 FATTY ACIDS FOR REDUCTION OF LP-PLA2 LEVELS” (priority 2006, published 2011).

System: Lp-PLA2
Settings: for reduction of Lp-PLA2: Tsimihodimos et al. 2002, patients treated

Compound: CC(C)c1c(C(=O)Nc2ccccc2)c(-c2ccccc2)c(-c2ccc(F)cc2)n1CC[C@@H](O)C[C@@H](O)CC(=O)O [atorvastatin]
- reduced Lp-PLA2 levels (O'Donoghue et al. 2006): 20%
- reduction of Lp-PLA2: 28-42%

Compound: CC(C)OC(=O)C(C)(C)Oc1ccc(C(=O)c2ccc(Cl)cc2)cc1 [fenofibrate, 2-[4-(4-chlorobenzoyl)phenoxy]-2-methyl-propanoic acid, 1-methylethyl ester]
- reduction of Lp-PLA2: 22-28%
